We go through two molecules from patent publication US10590143B2, “Herbicidally active (alkynyl-phenyl)-substituted cyclic dione compounds and derivatives thereof” (Syngenta Limited, priority 2013, dated 2020).

Assay in all cases: Biological Example 2 glasshouse assay for herbicidal activity
Common to all, as to type: in vivo

In experiment [1] the test system is Alopecurus myosuroides (ALOMY). Particulars: post-emergence, 360 h, 30 g/ha, 14 or 15 DAA, 0.2% v/v X-77, read-out: percentage phytotoxicity ALOMY. The protocol: (§1) Seeds of a variety of monocotyledonous and dicotyledonous test plants are sown in standard soil in pots. The plants are cultivated for one day (for pre-emergence) or for about 12 days (range=10-13 days) (for post-emergence) under controlled conditions in a glasshouse (warm climate species at 24/18° C., cool climate species at 20/16° C., both at day/night; 16 hours light; 65% humidity).
(§2) An “instant formulation”, known as the “IF50”, containing 50 g/litre (i.e. 5% w/v) of the “technical” (i.e. unformulated) active ingredient is prepared by dissolving the active ingredient in a mixture of organic solvents and emulsifier, details of which are provided in the Table below. This IF50 is then mixed with a small, variable amount of acetone to aid dissolution, before addition of a 0.2% v/v aqueous solution of the adjuvant X-77 (which is a mixture of alkyl aryl polyoxyethylene glycols and free fatty acids in isopropanol, CAS Registry number 11097-66-8), as the aqueous diluent, to form an aqueous spray solution which contains a predetermined concentration of the active ingredient (which varies depending on the application rate of the active ingredient to the plants) and 0.2% v/v of the adjuvant X-77. This aqueous spray solution is then sprayed onto the plants, after one day's cultivation (for pre-emergence) or after about 12 days' cultivation (for post-emergence).
(§3) The test plants are then grown on, in a glasshouse (greenhouse) under controlled conditions (at either 24/18° C. or 20/16° C. (day/night) as mentioned above; 16 hours light; 65% humidity) and are watered twice daily. Either 14 or 15 days after application of the herbicide (14 or 15 DAA) (for post-emergence), or 20 days after application of the herbicide (20 DAA) (for pre-emergence), the test plants are evaluated visually, and an assessed percentage phytotoxicity score is given for each herbicidal application on each plant species (where 100%=total damage to plant; 0%=no damage to plant).
(§4) Some of the typical test plants are as follows: • Cool climate crop plants: Triticum aestivum (TRZAW, winter wheat), Brassica napus (BRSNN, rape, also called oilseed rape or rapeseed), Beta vulgaris (BEAVA, sugarbeet). • Warm climate crop plants: Glycine max (GLXMA, soybean). • Cool climate (“cool season”) grassy monocotyledonous weeds: Alopecurus myosuroides (ALOMY), Avena fatua (AVEFA), Lolium perenne (LOLPE), Poa annua (POAAN), Bromus tectorum (BROTE). • Warm climate (“warm season”) grassy monocotyledonous weeds: Setaria faberi (SETFA), SORVU (Sorghum bicolor (L.) Moench ssp. Bicolor, or Sorghum vulgare Pers.), Digitaria sanguinalis (DIGSA), Echinochloa crus-galli (ECHCG), Brachiaria plantaginea (BRAPL); Zea mays (ZEAMX, corn, maize, e.g. volunteer corn).

Experiment [2] deals with Avena fatua (AVEFA). Particulars: post-emergence, 360 h, 30 g/ha, 14 or 15 DAA, 0.2% v/v X-77, read-out: percentage phytotoxicity AVEFA. The protocol:
as §1, §2, §3, §4

Experiment [3] concerns Brachiaria plantaginea (BRAPL). Particulars: Urochloa plantaginea, post-emergence, 360 h, 30 g/ha, 14 or 15 DAA, 0.2% v/v X-77, read-out: percentage phytotoxicity BRAPL. As to the method:
as §1, §2, §3, §4

The test system of experiment [4] is Brassica napus (BRSNN, rape). Particulars: Brassica napus, 360 h; post-emergence, 30 g/ha, 14 or 15 DAA, 0.2% v/v X-77; read-out: percentage phytotoxicity BRSNN. As to the method:
as §1, §2, §3, §4

The test system of experiment [5] is Digitaria sanguinalis (DIGSA). Particulars: post-emergence, 360 h, 30 g/ha, 14 or 15 DAA, 0.2% v/v X-77, read-out: percentage phytotoxicity DIGSA. The protocol: as §1, §2, §3, §4
The subject of experiment [6] is Echinochloa crus-galli (ECHCG). Particulars: Echinochloa crus-galli, post-emergence, 360 h, 30 g/ha, 14 or 15 DAA, 0.2% v/v X-77, read-out: percentage phytotoxicity ECHCG. As to the method:
as §1, §2, §3, §4

Experiment [7] relates to Glycine max (GLXMA, soybean). Particulars: post-emergence, 360 h, 30 g/ha, 14 or 15 DAA, 0.2% v/v X-77, read-out: percentage phytotoxicity GLXMA. The protocol:
as §1, §2, §3, §4

Experiment [8] relates to Lolium perenne (LOLPE). Particulars: post-emergence, 30 g/ha, 14 or 15 DAA; for pest or weed control at 30 g/ha: Lolium perenne, 360 h, 0.2% v/v X-77, read-out: percentage phytotoxicity LOLPE. The protocol:
as §1, §2, §3, §4

In experiment [9] the test system is Setaria faberi (SETFA). Particulars: post-emergence, 360 h, 30 g/ha, 14 or 15 DAA, 0.2% v/v X-77, read-out: percentage phytotoxicity SETFA. As to the method:
as §1, §2, §3, §4

The test system of experiment [10] is Triticum aestivum (TRZAW, winter wheat). Particulars: post-emergence, 360 h, 30 g/ha, 14 or 15 DAA, 0.2% v/v X-77, read-out: percentage phytotoxicity TRZAW. The protocol: as §1, §2, §3, §4
Experiment [11] deals with Beta vulgaris (BEAVA, sugarbeet). Particulars: post-emergence, 360 h, 30 g/ha, 14 or 15 DAA, 0.2% v/v X-77, read-out: percentage phytotoxicity BEAVA. As to the method:
as §1, §2, §3, §4

Experiment [12] relates to SORVU (Sorghum bicolor (L.) Moench ssp. Bicolor, or Sorghum vulgare Pers.). Particulars: post-emergence, 360 h, 30 g/ha, 14 or 15 DAA, 0.2% v/v X-77, read-out: percentage phytotoxicity SORVU. As to the method:
as §1, §2, §3, §4

For experiment [13], the system named is Zea mays (ZEAMX, corn, maize, e.g. volunteer corn). Particulars: Zea mays, post-emergence, 360 h, 30 g/ha, 14 or 15 DAA, 0.2% v/v X-77, read-out: percentage phytotoxicity ZEAMX. As to the method: as §1, §2, §3, §4

SMILES strings stand for the structures.

For the molecule `Cc1cc(C)c(C2C(=O)C3CCC(C3)C2=O)c(C)c1` (stereo not drawn) [Compound X9, reference compound], the pest or weed control at 30 g/ha in experiment [1] was determined as 0%; in experiment [2] it was 0%; in experiment [3] it was 70%; in experiment [5], 30%; in experiment [6], 20%; in experiment [8], 0%. The pest or weed control at 30 g/ha in experiment [9] came to 70%. Also, the plant injury at 30 g/ha in experiment [4], in experiment [7] and in experiment [10] was 0% throughout.
Take `CCc1cc(C)cc(CC)c1C1C(=O)C2CCC(C2)C1=O` (stereo not drawn) [Compound X10, reference compound]: the pest or weed control at 30 g/ha in [1] came to 80%; in experiment [3], 80%; in experiment [5], 100%; in [8], 70%; in [12] it was 60%; in experiment [9], 100%. Further, in [13], the pest or weed control at 30 g/ha worked out at 80%. The plant injury at 30 g/ha in [11], in experiment [4] and in experiment [7] was 0% each time. Also, the “percentage phytotoxicity LOLPE” value in experiment [8] (0.2% v/v X-77) was 70%.
